Reference: PubChem BioAssay (NCI)
“And” between values parts separate entries of the source, which are not always exact repeats. Equal entries are not always repeated.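 96-well plates; 48 h exposure; 5 concentrations. Endpoints by linear interpolation between flanking doses. Not reached: highest tested concentration assigned. Abbreviation: GI50, concentration required for 50% inhibition of growth. TGI is the concentration that stops growth completely.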

Experiments:
Assay in all cases: NCI-60 cell line screen, 48 h
SF-539 CNS = system: SF-539 CNS
HS 578T breast = system: HS 578T breast
DU-145 prostate = system: DU-145 prostate
HT29 colon = system: HT29 colon
HOP-62 NSCLC = system: HOP-62 NSCLC
IGROV1 ovarian = system: IGROV1 ovarian
K-562 leukemia = system: K-562 leukemia
NCI/ADR-RES ovarian = system: NCI/ADR-RES ovarian
HCT-116 colon = system: HCT-116 colon

SMILES	TGI (SF-539 CNS)	TGI (HS 578T breast)	TGI (DU-145 prostate)	TGI (HT29 colon)	TGI (HOP-62 NSCLC)	TGI (IGROV1 ovarian)	TGI (K-562 leukemia)	TGI (NCI/ADR-RES ovarian)	TGI (HCT-116 colon)	GI50 (SF-539 CNS)	GI50 (HS 578T breast)	GI50 (DU-145 prostate)	GI50 (HT29 colon)	GI50 (HOP-62 NSCLC)	GI50 (IGROV1 ovarian)	GI50 (K-562 leukemia)	GI50 (NCI/ADR-RES ovarian)	GI50 (HCT-116 colon)
CO[C@]12C[C@H](CNC(=O)c3ccc[nH]3)O[C@H]1NC(=O)N2	> 100 µM	> 100 µM	> 100 µM	> 100 µM	> 100 µM	> 100 µM	> 100 µM	> 100 µM	> 100 µM	–	–	–	–	–	–	–	–	–
COc1ccc(NC(=S)NC(=O)c2ccc3c(c2)Sc2ccccc2O3)c([N+](=O)[O-])c1	> 100 µM	43.2 µM	> 100 µM	> 100 µM	> 100 µM	59.1 µM	> 100 µM	> 100 µM	> 100 µM	–	–	–	–	–	–	–	–	–
COc1cc(/C=C/C=C2\CC/C(=C\C=C\c3ccc(O)c(OC)c3)C2=O)ccc1O	> 100 µM	> 100 µM	> 100 µM	> 100 µM	> 100 µM	> 100 µM	52.7 µM	> 100 µM	> 100 µM	–	–	–	–	–	–	–	–	–
Cn1c2ccccc2c(=O)c2c(O)cc3c(c21)C=CC1(CCCCC1)O3	> 10 µM	> 10 µM	> 10 µM	> 10 µM	> 10 µM	> 10 µM	> 10 µM	> 10 µM	> 10 µM	–	–	–	–	–	–	–	–	–
COc1cc2c(cc1OC)-c1cc3ccccc3c(=O)n1CC2	41.9 µM	50.2 µM	> 100 µM	98.9 µM	37.1 µM	72.8 µM	> 100 µM	> 100 µM	33.9 µM	–	–	–	–	–	–	–	–	–
NS(=O)(=O)c1cccc(NC(=S)NC(=O)Nc2ccc(Cl)c(Cl)c2)c1	38.1 µM	45.6 µM	97.9 µM	86.6 µM	30.9 µM	45.4 µM	37.2 µM	36.1 µM	31.4 µM	–	–	–	–	–	–	–	–	–
CCCCn1c(-c2ccc([N+](=O)[O-])cc2)cs/c1=N/N=C1\C(=O)Nc2ccc(Br)cc21	28 µM	> 100 µM	30 µM	33.1 µM	37.9 µM	> 100 µM	73.1 µM	37.4 µM	29.3 µM	–	–	–	–	–	–	–	–	–
COc1ccc(CN2C3CC2CN(c2ccc(-c4cc(OCC(C)(C)O)cn5ncc(C#N)c45)cn2)C3)cn1	8.61 µM	7.12 µM	> 100 µM	> 100 µM	47.6 µM	> 100 µM	> 100 µM	> 100 µM	> 100 µM	2.61 µM	2.01 µM	26.2 µM	8.09 µM	4.72 µM	4.17 µM	> 100 µM	28.7 µM	8.06 µM
CC(C)OC(=O)OCSc1ccccc1N=Cc1cccc([N+](=O)[O-])c1	> 10 µM	> 10 µM	> 10 µM	> 10 µM	> 10 µM	> 10 µM	> 10 µM	> 10 µM	> 10 µM	–	–	–	–	–	–	–	–	–
Cc1c2c(OCC3CCCCO3)nn(C)c(=O)c2c(C)n1-c1ccccc1 (centres undefined)	37.2 µM	46.6 µM	36.9 µM	91.4 µM	38 µM	37.8 µM	> 100 µM	50.7 µM	31.6 µM	–	–	–	–	–	–	–	–	–
S=c1cc(-c2ccc3c(c2)OCO3)s[nH]1	> 100 µM	> 100 µM	> 100 µM	> 100 µM	> 100 µM	> 100 µM	> 100 µM	> 100 µM	> 100 µM	–	–	–	–	–	–	–	–	–
COc1c(O)c2c(=O)cc(OC)c3c4c(OC)cc(=O)c5c(O)c(OC)c6c(c(c1C(C(C)O)C6C(C)O)c23)c54 (centres undefined)	2.11 µM	6.07 µM	8.14 µM	3.71 µM	2.02 µM	2.3 µM	1.66 µM	3.66 µM	6.18 µM	–	–	–	–	–	–	–	–	–
C\C(=N/N=C1/C(=C\N(C)C)C(=O)NC(=O)N1C)c1ccc(Cl)cc1	> 100 µM	> 100 µM	> 100 µM	> 100 µM	> 100 µM	> 100 µM	> 100 µM	> 100 µM	> 100 µM	–	–	–	–	–	–	–	–	–
COc1nc(C#CC(C)(C)C)nc(OC)n1	83.1 µM	91.8 µM	68.3 µM	> 100 µM	> 100 µM	> 100 µM	> 100 µM	46.1 µM	> 100 µM	–	–	–	–	–	–	–	–	–
COC(=O)C1=Nc2c(C)nn(-c3ccccc3)c2N=C(c2ccccc2)C1	> 10 µM	> 10 µM	> 10 µM	> 10 µM	> 10 µM	> 10 µM	> 10 µM	> 10 µM	> 10 µM	–	–	–	–	–	–	–	–	–
O=[N+]([O-])c1ccc2c(c1)C1=NN(c3ccccc3)C(c3ccccc3Br)C1CCC2 (centres undefined)	> 50 µM	> 50 µM	> 50 µM	> 50 µM	> 50 µM	> 50 µM	> 50 µM	45.6 µM	> 50 µM	–	–	–	–	–	–	–	–	–

SMILES	TGI (SF-539 CNS)	TGI (HS 578T breast)	TGI (DU-145 prostate)	TGI (HT29 colon)	TGI (HOP-62 NSCLC)	TGI (IGROV1 ovarian)	TGI (K-562 leukemia)	TGI (NCI/ADR-RES ovarian)	TGI (HCT-116 colon)	GI50 (SF-539 CNS)	GI50 (HS 578T breast)	GI50 (DU-145 prostate)	GI50 (HT29 colon)	GI50 (HOP-62 NSCLC)	GI50 (IGROV1 ovarian)	GI50 (K-562 leukemia)	GI50 (NCI/ADR-RES ovarian)	GI50 (HCT-116 colon)
COc1cc2c(cc1Cc1c(F)cccc1Cl)nc(-c1c(F)cccc1Cl)n2Cc1c(F)cccc1Cl	60.1 µM	> 100 µM	> 100 µM	> 100 µM	75.7 µM	> 100 µM	> 100 µM	> 100 µM	> 100 µM	–	–	–	–	–	–	–	–	–
O=C(Nc1noc(-c2ccccc2)n1)c1ccccc1CNc1noc(-c2ccccc2)n1	> 100 µM	> 100 µM	> 100 µM	> 100 µM	> 100 µM	> 100 µM	> 100 µM	> 100 µM	> 100 µM	–	–	–	–	–	–	–	–	–
O=c1cc(-c2cc(O)c(O)c(-c3c(O)cc4oc(-c5ccc(O)c(O)c5)cc(=O)c4c3O)c2)oc2cc(O)cc(O)c12	> 25 µM	> 25 µM	> 25 µM	> 25 µM	> 25 µM	> 25 µM	> 25 µM	> 25 µM	> 25 µM	–	–	–	–	–	–	–	–	–
N#Cc1nc(NC(=O)c2ccccc2C(=O)O)c(C#N)[nH]1	> 100 µM	> 100 µM	> 100 µM	> 100 µM	> 100 µM	> 100 µM	> 100 µM	> 100 µM	> 100 µM	–	–	–	–	–	–	–	–	–
NC(=O)N/N=C1\CC2C3CC4C2C4C13 (centres undefined)	> 100 µM	> 100 µM	> 100 µM	> 100 µM	> 100 µM	> 100 µM	> 100 µM	> 100 µM	> 100 µM	–	–	–	–	–	–	–	–	–
Oc1[nH]c2ccccc2c1N=NC(=S)Nc1ccc(Cl)cc1	82.3 µM	> 100 µM	> 100 µM	> 100 µM	> 100 µM	> 100 µM	> 100 µM	38.8 µM	> 100 µM	–	–	–	–	–	–	–	–	–
CC(=O)c1ccc2c(c1)CC1(C2)Cc2ccccc2C1=O (centres undefined)	> 100 µM	> 100 µM	> 100 µM	43.8 µM	> 100 µM	> 100 µM	> 100 µM	75.6 µM	> 100 µM	–	–	–	–	–	–	–	–	–
COC1=C(C)C(=O)c2c(c(COC(N)=O)c3n2CC(OC(C)=O)C3OC(C)=O)C1=O (centres undefined)	0.165 µM	1.09 µM	0.265 µM	0.25 µM	0.563 µM	0.402 µM	> 100 µM	0.979 µM	0.129 µM	–	–	–	–	–	–	–	–	–
[O-]/[N+](=C\c1ccccc1OC(=S)S)c1ccc(Cl)cc1	> 100 µM	> 100 µM	> 100 µM	> 100 µM	> 100 µM	30.7 µM	> 100 µM	> 100 µM	72.7 µM	–	–	–	–	–	–	–	–	–
CCOP(=O)(/C=C\n1ccc(N)nc1=O)OCC	> 100 µM	> 100 µM	> 100 µM	> 100 µM	> 100 µM	> 100 µM	> 100 µM	> 100 µM	> 100 µM	–	–	–	–	–	–	–	–	–
C#CCN(Cc1ccc2nc(OC)c(OC)nc2c1)c1cc(OC)c(OC)c(OC)c1	43.6 µM	79.1 µM	> 74.5 µM	72 µM	> 67.9 µM	> 69.6 µM	> 100 µM	53.7 µM	> 68.8 µM	–	–	–	–	–	–	–	–	–
COCCOCCOC1=CC(=O)c2c(O)ccc(O)c2C1=O	3.9 µM	6.05 µM	2.82 µM	1.79 µM	3.44 µM	3.21 µM	3.77 µM	4.85 µM	1.05 µM	–	–	–	–	–	–	–	–	–
COC(=O)/C(C#N)=C(/NCCN)Nc1ccccc1	> 100 µM	> 100 µM	> 100 µM	> 100 µM	> 100 µM	> 100 µM	> 100 µM	> 100 µM	> 100 µM	–	–	–	–	–	–	–	–	–
C=C(CN(C)C)C(=O)c1ccccc1[N+](=O)[O-]	71.4 µM and 40.4 µM	77.1 µM	52.3 µM and 28.2 µM	39.1 µM and 16.1 µM	> 100 µM and 36.6 µM	52.7 µM	27.7 µM and 12.9 µM	48.9 µM	31.6 µM and 38.3 µM	18.6 µM	–	15 µM	3.31 µM	17.7 µM	–	3.38 µM	5.61 µM	7.18 µM
CCOC(=O)/C=C(\C(=O)OCC)n1ccc(=O)n(Cc2cn(COCCOC(C)=O)nn2)c1=O	38.9 µM	63.6 µM	> 100 µM	30.8 µM	> 100 µM	44.3 µM	> 100 µM	52.8 µM	33 µM	–	–	–	–	–	–	–	–	–
N#Cc1nc(C2CCC2)oc1N	> 100 µM	> 100 µM	> 100 µM	> 100 µM	> 100 µM	> 100 µM	> 100 µM	> 100 µM	> 100 µM	–	–	–	–	–	–	–	–	–
